According to PubChem BioAssay (NCI):
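Protocol summary: plate cells (96-well), add compound at 5 concentrations, incubate 48 h, interpolate endpoints linearly. The concentration for 50% growth inhibition is given as GI50. TGI: concentration producing complete growth inhibition.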

Legend:
Assay in all cases: DTP human tumour cell line panel, 48 h
KM12 colon = system: KM12 colon
MALME-3M melanoma = system: MALME-3M melanoma
SN12C renal = system: SN12C renal
786-0 renal = system: 786-0 renal
NCI-H23 lung = system: NCI-H23 lung
DU-145 prostate = system: DU-145 prostate
SW-620 colon = system: SW-620 colon
OVCAR-3 ovarian = system: OVCAR-3 ovarian
UACC-62 melanoma = system: UACC-62 melanoma
RXF 393 renal = system: RXF 393 renal
UACC-257 melanoma = system: UACC-257 melanoma
SK-OV-3 ovarian = system: SK-OV-3 ovarian
NCI/ADR-RES ovarian = system: NCI/ADR-RES ovarian
HOP-92 NSCLC = system: HOP-92 NSCLC
CAKI-1 renal = system: CAKI-1 renal
SK-MEL-28 melanoma = system: SK-MEL-28 melanoma
ACHN renal = system: ACHN renal
IGROV1 ovarian = system: IGROV1 ovarian
MOLT-4 leukemia = system: MOLT-4 leukemia
MDA-MB-435 = system: MDA-MB-435
RPMI-8226 leukemia = system: RPMI-8226 leukemia
SF-268 CNS = system: SF-268 CNS
K-562 leukemia = system: K-562 leukemia
COLO 205 colon = system: COLO 205 colon
BT-549 breast = system: BT-549 breast
HCT-116 colon = system: HCT-116 colon
SK-MEL-5 melanoma = system: SK-MEL-5 melanoma

COc1ccccc1-c1ccc2c(N)c(C(=O)c3ccc4c(c3)OCO4)sc2n1
GI50 (KM12 colon): 4.46 µM | TGI (KM12 colon): 23.3 µM | GI50 (MALME-3M melanoma): 4.9 µM | TGI (MALME-3M melanoma): 16 µM | GI50 (SN12C renal): 6.14 µM | TGI (SN12C renal): 24.5 µM | GI50 (786-0 renal): 2.78 µM | TGI (786-0 renal): 11.3 µM | GI50 (NCI-H23 lung): 12.9 µM | TGI (NCI-H23 lung): 52.8 µM | GI50 (DU-145 prostate): 15 µM | TGI (DU-145 prostate): 42.6 µM | GI50 (SW-620 colon): 4.34 µM | TGI (SW-620 colon): > 100 µM | GI50 (OVCAR-3 ovarian): 5.18 µM | TGI (OVCAR-3 ovarian): 22 µM | GI50 (UACC-62 melanoma): 4.12 µM | TGI (UACC-62 melanoma): 18.6 µM | GI50 (RXF 393 renal): 3.01 µM | TGI (RXF 393 renal): 11.2 µM | GI50 (UACC-257 melanoma): 6.1 µM | TGI (UACC-257 melanoma): 22.7 µM | GI50 (SK-OV-3 ovarian): 5.97 µM | TGI (SK-OV-3 ovarian): 18.2 µM | GI50 (NCI/ADR-RES ovarian): 4.13 µM | TGI (NCI/ADR-RES ovarian): 16.7 µM | GI50 (HOP-92 NSCLC): 2.99 µM | TGI (HOP-92 NSCLC): 13 µM | GI50 (CAKI-1 renal): 10.2 µM | TGI (CAKI-1 renal): 25.9 µM | GI50 (SK-MEL-28 melanoma): 5.03 µM | TGI (SK-MEL-28 melanoma): 19.9 µM | GI50 (ACHN renal): 4.07 µM | TGI (ACHN renal): 13.5 µM | GI50 (IGROV1 ovarian): 7.93 µM | TGI (IGROV1 ovarian): 25.5 µM | GI50 (MOLT-4 leukemia): 4.98 µM | TGI (MOLT-4 leukemia): > 100 µM | GI50 (MDA-MB-435): 2.27 µM | TGI (MDA-MB-435): 9.54 µM | GI50 (RPMI-8226 leukemia): 6.05 µM | TGI (RPMI-8226 leukemia): 59.4 µM | GI50 (SF-268 CNS): 7.55 µM | TGI (SF-268 CNS): 32.4 µM | GI50 (K-562 leukemia): 3.74 µM | TGI (K-562 leukemia): > 100 µM | GI50 (COLO 205 colon): 10 µM | TGI (COLO 205 colon): 31 µM | GI50 (BT-549 breast): 7.21 µM | TGI (BT-549 breast): 30.2 µM | GI50 (HCT-116 colon): 3.68 µM | TGI (HCT-116 colon): 15 µM | GI50 (SK-MEL-5 melanoma): 4.52 µM | TGI (SK-MEL-5 melanoma): 24.2 µM
